Test results reported in the supplement of paper PMC8612539.
Values after ≈ are worked out from the molar mass of the structure shown.

Test system: Pasteurella multocida
Assay: minimum inhibitory concentration (MIC)
Protocol: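 Broth microdilution MIC (Sensititre BOPO7F bovine plate, CLSI methods) of 19 antimicrobials against field isolates of P. multocida, M. haemolytica, H. somni (deep nasopharyngeal swabs) and E. coli, Enterococcus spp. (rectal swabs) from weaned dairy heifers. Incubation 16-24 h at 35 C. MIC is the lowest concentration preventing visible growth. Values with <= or > lie at the tested range limits. Trimethoprim-sulfamethoxazole is given as the trimethoprim component of a 1:19 mixture.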

CS(=O)(=O)c1ccc([C@@H](O)[C@@H](CF)NC(=O)C(Cl)Cl)cc1 [Florfenicol]
Conditions	minimum inhibitory concentration [µg/mL]
isolate (source animal id): 10	8 (≈ 22.3 µM)
isolate (source animal id): 11	8 (≈ 22.3 µM)
isolate (source animal id): 12	8 (≈ 22.3 µM)
isolate (source animal id): 19	8 (≈ 22.3 µM)
isolate (source animal id): 23	8 (≈ 22.3 µM)
isolate (source animal id): 26	8 (≈ 22.3 µM)
isolate (source animal id): 98	8 (≈ 22.3 µM)
isolate (source animal id): 104	0.5 (≈ 1.4 µM)
isolate (source animal id): 115	8 (≈ 22.3 µM)
isolate (source animal id): 117	0.5 (≈ 1.4 µM)
isolate (source animal id): 118	8 (≈ 22.3 µM)
isolate (source animal id): 121	8 (≈ 22.3 µM)
isolate (source animal id): 124	1 (≈ 2.79 µM)
isolate (source animal id): 125	8 (≈ 22.3 µM)
isolate (source animal id): 128	8 (≈ 22.3 µM)
isolate (source animal id): 131	> 8
isolate (source animal id): 135	> 8
isolate (source animal id): 136	8 (≈ 22.3 µM)
isolate (source animal id): 140	0.5 (≈ 1.4 µM)
isolate (source animal id): 144	8 (≈ 22.3 µM)
isolate (source animal id): 146	8 (≈ 22.3 µM)
isolate (source animal id): 150	8 (≈ 22.3 µM)
isolate (source animal id): 151	8 (≈ 22.3 µM)
isolate (source animal id): 153	8 (≈ 22.3 µM)
isolate (source animal id): 155	0.5 (≈ 1.4 µM)
isolate (source animal id): 157	8 (≈ 22.3 µM)
isolate (source animal id): 160	8 (≈ 22.3 µM)
isolate (source animal id): 164	8 (≈ 22.3 µM)
isolate (source animal id): 165	8 (≈ 22.3 µM)
isolate (source animal id): 167	0.5 (≈ 1.4 µM)
isolate (source animal id): 168	1 (≈ 2.79 µM)
isolate (source animal id): 169	0.5 (≈ 1.4 µM)
isolate (source animal id): 170	> 8
isolate (source animal id): 171	0.5 (≈ 1.4 µM)
isolate (source animal id): 172	0.5 (≈ 1.4 µM)
isolate (source animal id): 173	1 (≈ 2.79 µM)
isolate (source animal id): 174	0.5 (≈ 1.4 µM)
isolate (source animal id): 175	0.5 (≈ 1.4 µM)
isolate (source animal id): 176	0.5 (≈ 1.4 µM)
isolate (source animal id): 177	0.5 (≈ 1.4 µM)
isolate (source animal id): 178	0.5 (≈ 1.4 µM)
isolate (source animal id): 179	0.5 (≈ 1.4 µM)
isolate (source animal id): 182	0.5 (≈ 1.4 µM)
isolate (source animal id): 192	0.5 (≈ 1.4 µM)
isolate (source animal id): 193	0.5 (≈ 1.4 µM)
isolate (source animal id): 195	0.5 (≈ 1.4 µM)
isolate (source animal id): 196	0.5 (≈ 1.4 µM)
isolate (source animal id): 197	0.5 (≈ 1.4 µM)
isolate (source animal id): 198	1 (≈ 2.79 µM)
isolate (source animal id): 199	0.5 (≈ 1.4 µM)
isolate (source animal id): 200	0.5 (≈ 1.4 µM)
isolate (source animal id): 201	0.5 (≈ 1.4 µM)
isolate (source animal id): 203	0.5 (≈ 1.4 µM)
isolate (source animal id): 204	0.5 (≈ 1.4 µM)
isolate (source animal id): 205	1 (≈ 2.79 µM)
isolate (source animal id): 206	0.5 (≈ 1.4 µM)
isolate (source animal id): 207	0.5 (≈ 1.4 µM)
isolate (source animal id): 208	0.5 (≈ 1.4 µM)
isolate (source animal id): 209	0.5 (≈ 1.4 µM)
isolate (source animal id): 210	1 (≈ 2.79 µM)
isolate (source animal id): 213	0.5 (≈ 1.4 µM)
isolate (source animal id): 216	0.5 (≈ 1.4 µM)
isolate (source animal id): 223	1 (≈ 2.79 µM)
isolate (source animal id): 227	0.5 (≈ 1.4 µM)
isolate (source animal id): 229	8 (≈ 22.3 µM)
isolate (source animal id): 233	0.5 (≈ 1.4 µM)
isolate (source animal id): 234	8 (≈ 22.3 µM)
isolate (source animal id): 237	8 (≈ 22.3 µM)
isolate (source animal id): 241	8 (≈ 22.3 µM)
isolate (source animal id): 245	0.5 (≈ 1.4 µM)
isolate (source animal id): 247	0.5 (≈ 1.4 µM)
isolate (source animal id): 250	8 (≈ 22.3 µM)
isolate (source animal id): 254	> 8
isolate (source animal id): 255	4 (≈ 11.2 µM)
isolate (source animal id): 258	0.5 (≈ 1.4 µM)
isolate (source animal id): 261	8 (≈ 22.3 µM)
isolate (source animal id): 262	> 8
isolate (source animal id): 269	0.5 (≈ 1.4 µM)
isolate (source animal id): 270	8 (≈ 22.3 µM)
isolate (source animal id): 274	> 8
isolate (source animal id): 275	> 8
isolate (source animal id): 276	0.5 (≈ 1.4 µM)
isolate (source animal id): 277	0.5 (≈ 1.4 µM)
isolate (source animal id): 278	> 8
isolate (source animal id): 279	1 (≈ 2.79 µM)
isolate (source animal id): 280	0.5 (≈ 1.4 µM)
isolate (source animal id): 284	8 (≈ 22.3 µM)
isolate (source animal id): 285	> 8
isolate (source animal id): 287	> 8
isolate (source animal id): 290	> 8
isolate (source animal id): 294	> 8
isolate (source animal id): 295	8 (≈ 22.3 µM)
isolate (source animal id): 296	0.5 (≈ 1.4 µM)
isolate (source animal id): 307	> 8
isolate (source animal id): 310	> 8
isolate (source animal id): 311	8 (≈ 22.3 µM)
isolate (source animal id): 312	8 (≈ 22.3 µM)
isolate (source animal id): 313	> 8
isolate (source animal id): 315	> 8
isolate (source animal id): 316	> 8
